How the values were obtained:
Details in all cases: incubation time: 72 h
BT-474 [1] = assay: normalised response (% of control), CellTox Green; higher = less cell death (100 = DMSO, 0 = benzethonium chloride kill control)
How it was run: (§1)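 Compound was dispensed into 384-well plates at 5 concentrations in 10-fold steps spanning a 10,000-fold range specific to that compound. Breast cancer cell lines were added as 20 µl suspension and left for 72 h before CellTox Green fluorescence (485/520 nm) and then CellTiter-Glo luminescence, read after 10 min at room temperature. Each reported value is the normalised signal at one concentration, with 0.1 % DMSO set at 100 and a positive kill control at 0 on each plate.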

BT-549 [2] = assay: as above
How it was run: as §1

CAL-120 [3] = assay: as above
How it was run: as §1

CAL-148 [4] = assay: as above
How it was run: as §1

CAL-51 [5] = assay: as above
How it was run: as §1

CAL-85-1 [6] = assay: as above
How it was run: as §1

DU-4475 [7] = assay: as above
How it was run: as §1

HCC1143 [8] = assay: as above
How it was run: as §1

HCC1599 [9] = assay: as above
How it was run: as §1

HCC1937 [10] = assay: as above
How it was run: as §1

Hs578T [11] = assay: as above
How it was run: as §1

MCF-10A [12] = assay: as above
How it was run: as §1

MDA-MB-231 [13] = assay: as above
How it was run: as §1

MDA-MB-436 [14] = assay: as above
How it was run: as §1

MDA-MB-453 [15] = assay: as above
How it was run: as §1

MDA-MB-468 [16] = assay: as above
How it was run: as §1

MFM-223 [17] = assay: as above
How it was run: as §1

BT-474 [18] = assay: normalised response (% of control), CellTiter-Glo; higher = more viable cells (100 = DMSO, 0 = benzethonium chloride kill control)
Method: (§2)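 DSRT, 72 h incubation, CellTox Green / CellTiter-Glo readout. Signal is normalised to DMSO and benzethonium chloride controls. Value is the normalised response at dose 3.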

BT-549 [19] = assay: as above
Method: as §2

CAL-120 [20] = assay: as above
Method: as §2

CAL-148 [21] = assay: as above
Method: as §2

CAL-51 [22] = assay: as above
Method: as §2

CAL-85-1 [23] = assay: as above
Method: as §2

DU-4475 [24] = assay: as above
Method: as §2

HCC1143 [25] = assay: as above
Method: as §2

HCC1599 [26] = assay: as above
Method: as §2

HCC1937 [27] = assay: as above
Method: as §2

HDQ-P1 [28] = assay: as above
Method: as §2

Hs578T [29] = assay: as above
Method: as §2

MCF-10A [30] = assay: as above
Method: as §2

MDA-MB-231 [31] = assay: as above
Method: as §2

MDA-MB-436 [32] = assay: as above
Method: as §2

MDA-MB-453 [33] = assay: as above
Method: as §2

MDA-MB-468 [34] = assay: as above
Method: as §2

MFM-223 [35] = assay: as above
Method: as §2

SK-BR-3 = assay: as above
Method: as §2

HDQ-P1 [36] = assay: normalised response (% of control), CellTox Green; higher = less cell death (100 = DMSO, 0 = benzethonium chloride kill control)
How it was run: as §1

| Compound | normalised response (BT-474 [1]) [%] | normalised response (BT-549 [2]) [%] | normalised response (CAL-120 [3]) [%] | normalised response (CAL-148 [4]) [%] | normalised response (CAL-51 [5]) [%] | normalised response (CAL-85-1 [6]) [%] | normalised response (DU-4475 [7]) [%] | normalised response (HCC1143 [8]) [%] | normalised response (HCC1599 [9]) [%] | normalised response (HCC1937 [10]) [%] | normalised response (Hs578T [11]) [%] | normalised response (MCF-10A [12]) [%] | normalised response (MDA-MB-231 [13]) [%] | normalised response (MDA-MB-436 [14]) [%] | normalised response (MDA-MB-453 [15]) [%] | normalised response (MDA-MB-468 [16]) [%] | normalised response (MFM-223 [17]) [%] | normalised response (BT-474 [18]) [%] | normalised response (BT-549 [19]) [%] | normalised response (CAL-120 [20]) [%] | normalised response (CAL-148 [21]) [%] | normalised response (CAL-51 [22]) [%] | normalised response (CAL-85-1 [23]) [%] | normalised response (DU-4475 [24]) [%] | normalised response (HCC1143 [25]) [%] | normalised response (HCC1599 [26]) [%] | normalised response (HCC1937 [27]) [%] | normalised response (HDQ-P1 [28]) [%] | normalised response (Hs578T [29]) [%] | normalised response (MCF-10A [30]) [%] | normalised response (MDA-MB-231 [31]) [%] | normalised response (MDA-MB-436 [32]) [%] | normalised response (MDA-MB-453 [33]) [%] | normalised response (MDA-MB-468 [34]) [%] | normalised response (MFM-223 [35]) [%] | normalised response (SK-BR-3) [%] | normalised response (HDQ-P1 [36]) [%] |
| --- | --- | --- | --- | --- | --- | --- | --- | --- | --- | --- | --- | --- | --- | --- | --- | --- | --- | --- | --- | --- | --- | --- | --- | --- | --- | --- | --- | --- | --- | --- | --- | --- | --- | --- | --- | --- | --- |
| CO[C@H]1C[C@@H]2CC[C@@H](C)[C@@](O)(O2)C(=O)C(=O)N2CCCC[C@H]2C(=O)O[C@H]([C@H](C)C[C@@H]2CC[C@@H](OP(C)(C)=O)[C@H](OC)C2)CC(=O)[C@H](C)/C=C(\C)[C@@H](O)[C@@H](OC)C(=O)[C@H](C)C[C@H](C)/C=C/C=C/C=C/1C [Ridaforolimus] (1 nM) | 101 | 84.4 | 103 | 82.1 | 106 | 95.2 | 98.9 | 111 | 111 | 119 | 81 | 94.6 | 107 | 75.3 | 101 | 115 | 105 | 94 | 68.4 | 80.5 | 89.3 | 90.9 | 74.4 | 92.7 | 81.1 | 88.1 | 79.2 | 91.7 | 71.7 | 107 | 93.7 | 88.3 | 83.8 | 62.1 | 84.7 | 73.5 |  |
| CN(C)c1nc(N(C)C)nc(N(C)C)n1 [Altretamine] (100 nM) | 102 | 89.1 | 106 | 106 | 109 | 103 | 104 | 113 | 104 | 110 |  | 101 | 118 | 102 | 100 | 123 | 98.5 | 98.4 | 95.4 | 103 | 106 | 107 | 102 | 104 | 97.9 | 99.9 | 99.2 | 98.2 | 106 | 105 | 99.5 | 99.1 | 105 | 99 | 106 | 112 | 64.1 |
| O=P1(N(CCCl)CCCl)NCCCO1 (stereo not given) [Cyclophosphamide] (400 nM) | 98.5 | 101 | 102 | 89.6 | 92.2 | 101 | 99 | 116 | 98.8 | 93.7 | 84.3 |  | 107 | 104 | 100 |  | 87.4 | 99 | 104 | 97.8 | 102 | 93.8 | 99.9 | 105 | 98.7 | 111 | 94.6 | 99.6 | 98.9 | 103 | 98.3 | 97.1 | 108 | 102 | 102 | 109 |  |
| Oc1ccc2c(c1)CC[C@H](c1ccccc1)[C@@H]2c1ccc(OCCN2CCCC2)cc1 [Lasofoxifene] (10 nM) | 102 | 108 | 104 | 90.8 | 110 | 99.8 | 104 | 117 | 114 | 77 |  | 107 | 114 | 116 | 110 |  | 102 | 102 | 115 | 114 | 111 | 91.3 | 103 | 107 | 104 | 106 | 95.5 | 95.3 | 103 | 108 | 110 | 109 | 99.1 | 90.8 | 105 | 112 | 90.8 |
| Nc1cc(C(F)(F)F)c(-c2cc(N3CCOCC3)nc(N3CCOCC3)n2)cn1 [Buparlisib] (100 nM) | 99 | 98.1 | 96.8 | 93.1 | 94.8 | 109 | 98.6 |  | 93.5 | 78.7 | 104 | 102 | 78.2 | 85.7 | 91 | 163 | 96.7 | 97.3 | 110 | 96.2 | 101 | 88.8 | 101 | 95.9 | 99 | 111 | 98 | 95.2 | 99.3 | 88.5 | 93 | 98.2 | 97.8 | 92.1 | 86.9 | 91.2 | 96.4 |
| CCOC(=O)CCNc1cc(N2CCc3ccccc3CC2)nc(-c2ccccn2)n1 [GSK-J4] (1000 nM) | 100 | 97.1 | 97 | 97.7 | 86.2 | 113 | 106 |  | 95.1 | 92.9 | 80.2 | 103 | 112 | 84.1 | 102 | 110 | 86.8 | 99.7 | 47.3 | 105 | 92.7 | 57.2 | 96.9 | 99.5 | 103 | 100 | 84.7 | 95.4 | 98.3 | 106 | 95.8 | 89.8 | 70.3 | 67.7 | 93.6 | 98.5 | 89.9 |
| O=C(Nc1ccncc1)C(=O)c1cn(Cc2ccc(Cl)cc2)c2ccccc12 [Indibulin] (100 nM) | 101 | 94.8 | 93.1 | 105 | 100 | 81.3 | 105 | 120 | 111 | 98.3 |  | 94.4 | 105 | 90.3 | 100 | 136 | 105 | 98.1 | 81.8 | 97.5 | 113 | 62 | 87.7 | 106 | 98.5 | 89.1 | 91.5 | 96.8 | 100 | 108 | 106 | 92 | 89.1 | 95.8 | 98.5 | 96.2 | 111 |
| COc1cc2ncnc(Nc3ccc(F)c(Cl)c3)c2cc1OCCCN1CCOCC1 [Gefitinib] (100 nM) | 100 | 94.8 | 83.3 | 87.3 | 89.6 | 93.8 | 99.9 | 116 | 102 | 87.2 | 68 | 101 | 70.7 | 98.3 | 101 | 92.2 | 73.2 | 96.5 | 91.8 | 99.4 | 113 | 90.7 | 88 | 103 | 103 | 82.5 | 93.3 | 80.8 | 99.5 | 59.3 | 106 | 104 | 96.5 | 96 | 101 | 94.8 |  |
| COc1cc2/c(=N/c3ccc(Br)cc3F)nc[nH]c2cc1OCC1CCN(C)CC1 [Vandetanib] (10 nM) | 95.4 | 98.2 | 97 | 89.6 | 95.5 | 101 | 91.9 | 91.8 | 81.1 | 84.5 |  | 83.3 | 85.3 | 55 | 80.8 | 104 | 99.1 | 87.1 | 98 | 95.7 | 89 | 87.1 | 90.2 | 93.2 | 92.1 | 85.7 | 94.6 | 91.7 | 94.5 | 78.3 | 92.5 | 97.2 | 72.2 | 87 | 86.5 | 82.3 |  |

Reference: the supplement of paper PMC4862054
